How the values were obtained:
CD68+ macrophages = experiment: Liver histology, anti-CD68 staining, depletion efficacy (Example 3); format: in vivo, Balb/C mice; conditions: for CD68+ macrophage depletion: clodronate IV 50 or 17 mpk, anti-CD115 IP 12 mpk 1 or 4 doses, pexidartinib oral gavage 100 mpk 4 doses, FIG. 5B
Procedure: (§1) Balb/C mice were treated with the immune cell depletion agents clodronate, anti-CD115 antibody (as described in Example 1), or pexidartinib. Clodronate was provided by IV administration at 50 mpk (1.25 mg) or 17 mpk (425 μg), anti-CD115 antibody was provided by IP administration at 12 mpk (300 μg) 1 dose vs 4 doses. Anti-CD115 antibody was as described in Example 1. Pexidartinib was provided by oral gavage administration at 100 mpk (2.5 mg) 4 doses. A no-treatment mice group was used as a control. Each group contained 5 male BALB/c mice.
(§2) After the treatment, mice were euthanized and the liver samples were harvested for histology. Liver samples were stained with either anti-CLEC4F or anti-CD68 mouse antibody. Individual scores of the treatment groups were normalized by the no-treatment group to calculate depletion efficacy.
(§3) Pexidartinib was mixed with mice chow at 400 mg Pex/kg chow. Liver histology was taken after mice were fed with Pex-chow for 7 or 21 days.

hFIX = hFIX levels in mouse plasma by ELISA after pexidartinib chow and DNA-LNP-5 (Example 4); format: in vivo; conditions: DNA-LNP-5 10 μg per mouse; 1-4 weeks after dosing; Pex chow 7 or 21 days before dosing or regular chow; FIG. 7
Procedure: Pexidartinib was mixed with mice chow at 400 mg Pex/kg chow. In group 2 and group 3, mice chow was replaced with Pex chow at 21 days and 7 days before DNA-LNP-5 dosing.
Mice in group 1 were fed with regular chow throughout the study and served as controls. Mice were dosed with DNA-LNP-5 (10 μg per mouse). LNP-5 (GenVoy™ LNP) was obtained from Precision NanoSystems Inc.) and contained: ionizable lipid at 50%; DSPC at 10%; cholesterol 37.5%; and stabilizer (PEG-Lipid) at 2.5% (see Roces et al., Pharmaceutics, 2020 12, 1095.) DNA was as described in Example 1. hFIX levels in mouse plasma were quantified using ELISA 1-4 weeks after dosing.

CLEC4F+ Kupffer cells = experiment: Liver histology, anti-CLEC4F staining, depletion efficacy (Example 3); format: in vivo, Balb/C mice; conditions: for Kupffer cell depletion (CLEC4F+ staining): clodronate IV 50 or 17 mpk, anti-CD115 IP 12 mpk 1 or 4 doses, pexidartinib oral gavage 100 mpk 4 doses, FIG. 5A
Procedure: as §1, §2, §3

INF-γ and/or IL-6 = experiment: Plasma pro-inflammatory cytokines by MSD 6 hours post-dose (Example 2); format: in vivo, mice (Balb/c); conditions: 6-hour post-dose plasma; SPK-LNP1 50 μg; FIGS. 3A and 3B
Procedure: The effects of immune cell depletion on cytokine release and on transgene expression were studied using an anti-CD115 antibody in combination with clodronate, which is a toxic agent encapsulated in liposomes to induce monocyte/macrophage apoptosis.
FIX transgene DNA plasmid (50 μg), formulated in lipid nanoparticle (LNP) delivery vehicles (SPK-LNP1), was dosed in mice (n=5; Balb/c; Jackson Laboratory) by intravenous administration alone, or in combination with anti-CD115 antibody and/or clodronate (purchased from Liposoma), as outlined in Table 3. SPK-LNP-1 had the following composition: C12-200 lipid at 35%; DOPE at 16%; cholesterol at 46.5%; and C14-PEG2000 (Avanti® Polar Lipids) at 2.5%. DNA and anti-CD115 antibody were as described in Example 1.
6-hour post-dose plasma samples were analyzed for a panel of pro-inflammatory cytokines using MSD: IL-6, IFN-γ, TNF-α and IL-1β.

Compound: FC(F)(F)c1ccc(CNc2ccc(Cc3c[nH]c4ncc(Cl)cc34)cn2)cn1 [Pexidartinib, pexidartinib]
- CD68+ macrophage depletion (CD68+ macrophages): no impact
- depletion of CD68+ macrophages (CD68+ macrophages; mixed with mice chow at 400 mg Pex/kg chow, fed 7 or 21 days, FIG. 6A): significant depletion
- hFIX levels in mouse plasma (hFIX): a few mice in Pex-treated groups showed detectable expression
- Kupffer cell depletion (CLEC4F+ staining) (CLEC4F+ Kupffer cells): small impact
- depletion of CLEC4F+ Kupffer cells (CLEC4F+ Kupffer cells; mixed with mice chow at 400 mg Pex/kg chow, fed 7 or 21 days, FIG. 6B): significant depletion

Compound: O=P(O)(O)C(Cl)(Cl)P(=O)(O)O [clodronate]
- CD68+ macrophage depletion (CD68+ macrophages): significant effect
- cytokine (INF-γ and/or IL-6) levels following DNA-LNP administration (INF-γ and/or IL-6): moderately reduced
- Kupffer cell depletion (CLEC4F+ staining) (CLEC4F+ Kupffer cells): significant effect

Reference: US20240074986A1, “Methods of Enhancing Non-Viral Gene Therapy” (Spark Therapeutics, Inc., priority 2020, published 2024)
